Columns and labels:
human V1a receptor = biological target: T1, human V1a receptor (Homo sapiens, UniProt P37288); experiment: Cellular in vitro assay for vasopressin receptor activity, V1a cell line (aequorin luminescence); type: cell-based; details: for IC50: CHO cell line transfected with human V1a receptor, agonist [Arg8]-vasopressin at EC50 concentration, read-out: IC50hV1a; for ratio IC50 hV2/hV1a: ratio of the IC50 on human V2 to the IC50 on human V1a
T1 construct: expressed in transfected cells; host or cells: CHO K1 (ATCC), also stably transfected with a modified aequorin
In short: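 CHO K1 cells stably expressing human V1a receptor with aequorin photoprotein, loaded overnight with coelenterazine. Compounds preincubated 10 min at various concentrations, then challenged with [Arg^8]-vasopressin at EC50 concentration. Calcium-driven luminescence read immediately; IC50 values derived.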

human V2 receptor = biological target: T2, human V2 receptor (Homo sapiens, UniProt P30518); experiment: Cellular in vitro assay for vasopressin receptor activity, V2 cell line (CRE-luciferase); type: cell-based; details: CHO cell line transfected with human V2 receptor; agonist [Arg8]-vasopressin at EC50 concentration, 3 hours; read-out: IC50hV2
T2 construct: expressed in transfected cells; host or cells: CHO K1 (ATCC) line expressing firefly luciferase under a CRE-responsive promoter
T2 sequence (P30518 whole entry): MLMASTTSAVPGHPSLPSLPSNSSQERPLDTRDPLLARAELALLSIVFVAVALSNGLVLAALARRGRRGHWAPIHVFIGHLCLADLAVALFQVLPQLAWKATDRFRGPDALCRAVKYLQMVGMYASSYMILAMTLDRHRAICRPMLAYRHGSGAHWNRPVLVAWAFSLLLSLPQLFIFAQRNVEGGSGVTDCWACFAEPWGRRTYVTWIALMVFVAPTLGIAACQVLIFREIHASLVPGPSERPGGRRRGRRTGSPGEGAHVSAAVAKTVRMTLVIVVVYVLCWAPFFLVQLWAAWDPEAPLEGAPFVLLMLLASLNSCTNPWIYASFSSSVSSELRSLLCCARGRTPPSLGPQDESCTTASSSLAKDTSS

T1 sequence (P37288 whole entry): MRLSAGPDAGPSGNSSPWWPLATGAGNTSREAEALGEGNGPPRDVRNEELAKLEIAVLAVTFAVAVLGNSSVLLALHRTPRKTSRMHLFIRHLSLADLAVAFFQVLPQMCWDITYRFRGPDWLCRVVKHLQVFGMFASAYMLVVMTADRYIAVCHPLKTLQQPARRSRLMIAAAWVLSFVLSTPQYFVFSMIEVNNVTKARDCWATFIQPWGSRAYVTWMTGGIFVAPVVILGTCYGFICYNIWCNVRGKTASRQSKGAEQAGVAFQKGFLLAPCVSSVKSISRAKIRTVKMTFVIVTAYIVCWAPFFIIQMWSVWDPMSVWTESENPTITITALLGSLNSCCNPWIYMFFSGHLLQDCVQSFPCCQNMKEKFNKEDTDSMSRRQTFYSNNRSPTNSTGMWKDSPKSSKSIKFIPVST

For `O=c1n(Cc2nc(C(F)(F)C3(O)CCCC3)n(-c3ccccc3Cl)n2)nc(-c2ccc(Cl)cc2)n1C[C@H](O)C(F)(F)F` [Example 75, 5-(4-Chlorophenyl)-2-({1-(2-chlorophenyl)-5-[difluoro(1-hydroxycyclopentyl)methyl]-1H-1,2,4-triazol-3-yl}methyl)-4-[(2S)-3,3,3-trifluoro-2-hydroxypropyl]-2,4-dihydro-3H-1,2,4-triazol-3-one], the IC50 (human V1a receptor) was 0.85 nM, the “ratio IC50 hV2/hV1a” value (human V1a receptor) was 6.4 and the IC50 (human V2 receptor) was 5.4 nM.

In the case of `CCc1cccc(C)c1-n1nc(Cn2nc(-c3ccc(Cl)cc3)n(C[C@H](O)C(F)(F)F)c2=O)nc1C(C)(F)F` [Example 73, 5-(4-Chlorophenyl)-2-{[5-(1,1-difluoroethyl)-1-(2-ethyl-6-methylphenyl)-1H-1,2,4-triazol-3-yl]methyl}-4-[(2S)-3,3,3-trifluoro-2-hydroxypropyl]-2,4-dihydro-3H-1,2,4-triazol-3-one], the IC50 (human V1a receptor) is reported as 41 nM, the “ratio IC50 hV2/hV1a” value (human V1a receptor) is reported as 0.3 and the IC50 (human V2 receptor) is reported as 11.9 nM.

In the case of `CC(F)c1nc(Cn2nc(-c3ccc(Cl)cc3)n(C[C@H](O)C(F)(F)F)c2=O)nn1-c1ccccc1[N+](=O)[O-]` (mixture of isomers) [Example 37, 5-(4-Chlorophenyl)-2-({5-[1-fluoroethyl]-1-(2-nitrophenyl)-1H-1,2,4-triazol-3-yl}methyl)-4-[(2S)-3,3,3-trifluoro-2-hydroxypropyl]-2,4-dihydro-3H-1,2,4-triazol-3-one], the IC50 (human V1a receptor) is reported as 3.35 nM, the “ratio IC50 hV2/hV1a” value (human V1a receptor) is reported as 3.0 and the IC50 (human V2 receptor) is reported as 10 nM.

For `CC(F)c1nc(Cn2nc(-c3ccc(Cl)cc3)n(C[C@H](O)C(F)(F)F)c2=O)nn1-c1cnccc1C(F)(F)F` (single isomer, unassigned) [Example 8], the IC50 (human V1a receptor) was 1.25 nM, the “ratio IC50 hV2/hV1a” value (human V1a receptor) was 15.8 and the IC50 (human V2 receptor) was 19.8 nM.

`CC(F)(F)c1nc(Cn2nc(-c3ccc(Cl)cc3)n(C[C@H](O)C(F)(F)F)c2=O)nn1-c1ccccc1S(N)(=O)=O` [Example 66, 2-[3-({3-(4-Chlorophenyl)-5-oxo-4-[(2S)-3,3,3-trifluoro-2-hydroxypropyl]-4,5-dihydro-1H-1,2,4-triazol-1-yl}methyl)-5-(1,1-difluoroethyl)-1H-1,2,4-triazol-1-yl]benzenesulfonamide] was tested, and the IC50 (human V1a receptor) was 58 nM, the “ratio IC50 hV2/hV1a” value (human V1a receptor) was 5.9 and the IC50 (human V2 receptor) was 340 nM.

With `Cc1ccccc1-n1nc(Cn2nc(-c3ccc(Cl)cc3)n(C[C@H](O)C(F)(F)F)c2=O)nc1C(C)(F)F` [Example 64, 5-(4-Chlorophenyl)-2-{[5-(1,1-difluoroethyl)-1-(2-methylphenyl)-1H-1,2,4-triazol-3-yl]methyl}-4-[(2S)-3,3,3-trifluoro-2-hydroxypropyl]-2,4-dihydro-3H-1,2,4-triazol-3-one] the IC50 (human V1a receptor) was 1.06 nM, the “ratio IC50 hV2/hV1a” value (human V1a receptor) was 1.6 and the IC50 (human V2 receptor) was 1.7 nM.

With `CC(F)c1nc(Cn2nc(-c3ccc(Cl)cc3)n(C[C@H](O)C(F)(F)F)c2=O)nn1-c1ccccc1OC(F)F` (mixture of isomers) [Example 31, 5-(4-Chlorophenyl)-2-({1-[2-(difluoromethoxy)phenyl]-5-[1-fluoroethyl]-1H-1,2,4-triazol-3-yl}methyl)-4-[(2S)-3,3,3-trifluoro-2-hydroxypropyl]-2,4-dihydro-3H-1,2,4-triazol-3-one] the IC50 (human V1a receptor) was 1.75 nM, the “ratio IC50 hV2/hV1a” value (human V1a receptor) was 2.6 and the IC50 (human V2 receptor) was 4.58 nM.

With `CC(F)c1nc(Cn2nc(-c3ccc(Cl)cc3)n(C[C@H](O)C(F)(F)F)c2=O)nn1-c1ccccc1S(N)(=O)=O` (mixture of isomers) [Example 41, 2-{3-({3-(4-Chlorophenyl)-5-oxo-4-[(2S)-3,3,3-trifluoro-2-hydroxypropyl]-4,5-dihydro-1H-1,2,4-triazol-1-yl}methyl)-5-[1-fluoroethyl]-1H-1,2,4-triazol-1-yl}benzenesulfonamide] the IC50 (human V1a receptor) was 84.8 nM, the “ratio IC50 hV2/hV1a” value (human V1a receptor) was 3.5 and the IC50 (human V2 receptor) was 292 nM.

With `CC(F)(F)c1nc(Cn2nc(-c3ccc(Cl)cc3)n(C[C@H](O)C(F)(F)F)c2=O)nn1-c1cnccc1C(F)(F)F` [Example 57, 5-(4-Chlorophenyl)-2-({5-(1,1-difluoroethyl)-1-[4-(trifluoromethyl)pyridin-3-yl]-1H-1,2,4-triazol-3-yl}methyl)-4-[(2S)-3,3,3-trifluoro-2-hydroxypropyl]-2,4-dihydro-3H-1,2,4-triazol-3-one] the IC50 (human V1a receptor) was 2 nM, the “ratio IC50 hV2/hV1a” value (human V1a receptor) was 12.3 and the IC50 (human V2 receptor) was 24.5 nM.

`CC(F)(F)c1nc(Cn2nc(-c3ccc(Cl)cc3)n(C[C@H](O)C(F)(F)F)c2=O)nn1-c1ccccc1OC(F)(F)F` [Example 61, 5-(4-Chlorophenyl)-2-({5-(1,1-difluoroethyl)-1-[2-(trifluoromethoxy)phenyl]-1H-1,2,4-triazol-3-yl}methyl)-4-[(2S)-3,3,3-trifluoro-2-hydroxypropyl]-2,4-dihydro-3H-1,2,4-triazol-3-one] was tested, and the IC50 (human V1a receptor) was 4.15 nM, the “ratio IC50 hV2/hV1a” value (human V1a receptor) was 10.7 and the IC50 (human V2 receptor) was 44.5 nM.

With `CC(F)(F)c1nc(Cn2nc(-c3ccc(Cl)cc3)n(C[C@H](O)C(F)(F)F)c2=O)nn1-c1ncccc1Cl` [Example 58, 5-(4-Chlorophenyl)-2-{[1-(3-chloropyridin-2-yl)-5-(1,1-difluoroethyl)-1H-1,2,4-triazol-3-yl]methyl}-4-[(2S)-3,3,3-trifluoro-2-hydroxypropyl]-2,4-dihydro-3H-1,2,4-triazol-3-one] the IC50 (human V1a receptor) was 1 nM, the “ratio IC50 hV2/hV1a” value (human V1a receptor) was 3.4 and the IC50 (human V2 receptor) was 3.4 nM.
